Source: ChEMBL document CHEMBL6153062, “Design, Synthesis, and Unprecedented Interactions of Covalent Dipeptide-Based Inhibitors of SARS-CoV-2 Main Protease and Its Variants Displaying Potent Antiviral Activity” (J Med Chem, 2025)

Assays:
[1] = Inhibition of SARS-CoV-2 MPro H172Q mutant; set-up: species or system Severe acute respiratory syndrome coronavirus 2
[2] = tested on: Severe acute respiratory syndrome coronavirus 2; experiment: Selectivity index, ratio of IC50 for inhibition of SARS-CoV-2 MPro S144M mutant to IC50 for inhibition of wild type SARS-CoV-2 MPro
[3] = tested on: Severe acute respiratory syndrome coronavirus 2; experiment: Selectivity index, ratio of IC50 for inhibition of SARS-CoV-2 MPro H172F mutant to IC50 for inhibition of wild type SARS-CoV-2 MPro
[4] = Inhibition of SARS-CoV-2 MPro G143S mutant; set-up: species or system Severe acute respiratory syndrome coronavirus 2
[5] = Inhibition of SARS-CoV-2 MPro H172Y mutant; set-up: species or system Severe acute respiratory syndrome coronavirus 2
[6] = tested on: Severe acute respiratory syndrome coronavirus 2; experiment: Selectivity index, ratio of IC50 for inhibition of SARS-CoV-2 MPro Q192S mutant to IC50 for inhibition of wild type SARS-CoV-2 MPro
[7] = tested on: Severe acute respiratory syndrome coronavirus 2; experiment: Selectivity index, ratio of IC50 for inhibition of SARS-CoV-2 MPro S144A mutant to IC50 for inhibition of wild type SARS-CoV-2 MPro
[8] = tested on: Severe acute respiratory syndrome coronavirus 2; experiment: Selectivity index, ratio of IC50 for inhibition of SARS-CoV-2 MPro H172Y mutant to IC50 for inhibition of wild type SARS-CoV-2 MPro
[9] = Inhibition of SARS-CoV-2 MPro Q189E mutant; set-up: species or system Severe acute respiratory syndrome coronavirus 2
[10] = Inhibition of SARS-CoV-2 MPro H172F mutant; set-up: species or system Severe acute respiratory syndrome coronavirus 2
[11] = Inhibition of SARS-CoV-2 MPro A173 V mutant; set-up: species or system Severe acute respiratory syndrome coronavirus 2
[12] = tested on: Severe acute respiratory syndrome coronavirus 2; experiment: Selectivity index, ratio of IC50 for inhibition of SARS-CoV-2 MPro G143S mutant to IC50 for inhibition of wild type SARS-CoV-2 MPro
[13] = tested on: Severe acute respiratory syndrome coronavirus 2; experiment: Selectivity index, ratio of IC50 for inhibition of SARS-CoV-2 MPro S144G mutant to IC50 for inhibition of wild type SARS-CoV-2 MPro
[14] = Inhibition of SARS-CoV-2 MPro S144A mutant; set-up: species or system Severe acute respiratory syndrome coronavirus 2
[15] = tested on: Severe acute respiratory syndrome coronavirus 2; experiment: Selectivity index, ratio of IC50 for inhibition of SARS-CoV-2 MPro Q189E mutant to IC50 for inhibition of wild type SARS-CoV-2 MPro
[16] = tested on: Severe acute respiratory syndrome coronavirus 2; experiment: Selectivity index, ratio of IC50 for inhibition of SARS-CoV-2 MPro E166 V mutant to IC50 for inhibition of wild type SARS-CoV-2 MPro
[17] = tested on: Severe acute respiratory syndrome coronavirus 2; experiment: Selectivity index, ratio of IC50 for inhibition of SARS-CoV-2 MPro L50F/E166A/L167F mutant to IC50 for inhibition of wild type SARS-CoV-2 MPro
[18] = Inhibition of SARS-CoV-2 MPro S144F mutant; set-up: species or system Severe acute respiratory syndrome coronavirus 2
[19] = Inhibition of SARS-CoV-2 MPro Q192S mutant; set-up: species or system Severe acute respiratory syndrome coronavirus 2
[20] = tested on: Severe acute respiratory syndrome coronavirus 2; experiment: Selectivity index, ratio of IC50 for inhibition of SARS-CoV-2 MPro M165T mutant to IC50 for inhibition of wild type SARS-CoV-2 MPro
[21] = Inhibition of SARS-CoV-2 MPro E166 V mutant; set-up: species or system Severe acute respiratory syndrome coronavirus 2
[22] = tested on: Severe acute respiratory syndrome coronavirus 2; experiment: Selectivity index, ratio of IC50 for inhibition of SARS-CoV-2 MPro deltaP168 mutant to IC50 for inhibition of wild type SARS-CoV-2 MPro
[23] = Inhibition of SARS-CoV-2 MPro L50F/E166A/L167F mutant; set-up: species or system Severe acute respiratory syndrome coronavirus 2
[24] = tested on: Severe acute respiratory syndrome coronavirus 2; experiment: Selectivity index, ratio of IC50 for inhibition of SARS-CoV-2 MPro S144F mutant to IC50 for inhibition of wild type SARS-CoV-2 MPro
[25] = Inhibition of SARS-CoV-2 MPro S144Y mutant; set-up: species or system Severe acute respiratory syndrome coronavirus 2
[26] = Inhibition of SARS-CoV-2 MPro M165T mutant; set-up: species or system Severe acute respiratory syndrome coronavirus 2
[27] = tested on: Severe acute respiratory syndrome coronavirus 2; experiment: Selectivity index, ratio of IC50 for inhibition of SARS-CoV-2 MPro A173 V mutant to IC50 for inhibition of wild type SARS-CoV-2 MPro
[28] = Inhibition of SARS-CoV-2 MPro S144M mutant; set-up: species or system Severe acute respiratory syndrome coronavirus 2
[29] = Inhibition of SARS-CoV-2 MPro S144G mutant; set-up: species or system Severe acute respiratory syndrome coronavirus 2
[30] = Inhibition of SARS-CoV-2 MPro deltaP168 mutant; set-up: species or system Severe acute respiratory syndrome coronavirus 2
[31] = tested on: Severe acute respiratory syndrome coronavirus 2; experiment: Selectivity index, ratio of IC50 for inhibition of SARS-CoV-2 MPro S144Y mutant to IC50 for inhibition of wild type SARS-CoV-2 MPro
[32] = tested on: Severe acute respiratory syndrome coronavirus 2; experiment: Selectivity index, ratio of IC50 for inhibition of SARS-CoV-2 MPro H172Q mutant to IC50 for inhibition of wild type SARS-CoV-2 MPro

Row | SMILES | IC50 [1] | IC50 [4] | IC50 [5] | IC50 [9] | IC50 [10] | IC50 [11] | IC50 [14] | IC50 [18] | IC50 [19] | IC50 [21] | IC50 [23] | IC50 [25] | IC50 [26] | IC50 [28] | IC50 [29] | IC50 [30] | other results
1 | C=CC(=O)[C@H](Cc1cccc(Cl)c1)NC(=O)[C@H](CC(C)C)NC(=O)CSc1ccccc1 | 159 nM | 155 nM | 297 nM | 211 nM | 146 nM | 82.4 nM | 42.5 nM | 219 nM | 261 nM | 236 nM | 239 nM | 244 nM | 260 nM | 414 nM | 254 nM | 65.4 nM | Ratio IC50 [2]: 35.4; Ratio IC50 [3]: 12.5; Ratio IC50 [6]: 22.3; Ratio IC50 [7]: 3.6; Ratio IC50 [8]: 25.4; Ratio IC50 [12]: 13.2; Ratio IC50 [13]: 21.7; Ratio IC50 [15]: 18; Ratio IC50 [16]: 20.2; Ratio IC50 [17]: 20.4; Ratio IC50 [20]: 22.2; Ratio IC50 [22]: 5.6; Ratio IC50 [24]: 18.7; Ratio IC50 [27]: 7; Ratio IC50 [31]: 20.9; Ratio IC50 [32]: 13.6
2 | C=CC(=O)[C@H](Cc1ccccc1)NC(=O)[C@H](CC(C)C)NC(=O)COc1ccc(Cl)cc1Cl | 390 nM | 230 nM | 1280 nM | 714 nM | 313 nM | 140 nM | 328 nM | 636 nM | 488 nM | 409 nM | 392 nM | 497 nM | 1390 nM | 745 nM | 472 nM | 368 nM | 
3 | CC(C)(C)[C@H](NC(=O)C(F)(F)F)C(=O)N1C[C@H]2[C@@H]([C@H]1C(=O)N[C@H](C#N)C[C@@H]1CCNC1=O)C2(C)C |  |  |  | 199 nM | 1700 nM | 85.5 nM | 41.7 nM | 176 nM |  | 2620 nM | 512 nM | 203 nM | 181 nM | 426 nM |  | 47 nM | 
